The text below walks through data of patent US6410735B1, “1-(4-arylpiperazin-1-y1)-ω-[N-(α,ω-dicarboximido)]-alkanes useful as uro-selective α1-adrenoceptor blockers” (Ranbaxy Laboratories Limited, priority 1997, dated 2002).

Counter-ions that a name gives are not always drawn. Like-named read-outs stand apart in the source and are kept apart here.

Data set [1] deals with T1, α1B-adrenoceptor (spleen) (Rattus norvegicus, UniProt P15823).
T1 construct: Aorta, prostate and spleen tissues were isolated from urethane anaesthetized (1.5 gm/kg) male wistar rats; from tissue; host or cells: isolated spleen of male Wistar rats
T1 sequence (P15823 1-515): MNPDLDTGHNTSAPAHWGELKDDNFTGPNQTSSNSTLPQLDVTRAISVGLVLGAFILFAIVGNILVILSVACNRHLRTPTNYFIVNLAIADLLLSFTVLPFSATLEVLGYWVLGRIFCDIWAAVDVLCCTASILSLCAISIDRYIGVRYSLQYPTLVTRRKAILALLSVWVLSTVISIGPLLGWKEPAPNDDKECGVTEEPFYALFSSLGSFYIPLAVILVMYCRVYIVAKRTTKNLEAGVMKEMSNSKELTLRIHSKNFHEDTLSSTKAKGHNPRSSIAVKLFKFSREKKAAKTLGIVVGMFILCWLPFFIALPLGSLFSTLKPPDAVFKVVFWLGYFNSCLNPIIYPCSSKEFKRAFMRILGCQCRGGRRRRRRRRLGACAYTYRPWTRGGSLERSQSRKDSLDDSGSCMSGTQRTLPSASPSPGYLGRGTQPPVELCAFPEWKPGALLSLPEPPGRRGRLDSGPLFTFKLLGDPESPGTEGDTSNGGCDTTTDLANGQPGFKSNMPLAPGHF
Kind of data set: In vitro functional assay, phenylephrine-induced contraction of isolated spleen. In kind it is cell-based. From the text:
(§1) In order to study selectivity of action of the present compounds towards different α-adrenoceptor subtypes, the ability of these compounds to antagonize α1-adrenoceptor agonist induced contractile response of aorta (α1D), prostate (α1A) and spleen (α1B) was studied. Aorta, prostate and spleen tissues were isolated from urethane anaesthetized (1.5 gm/kg) male wistar rats. Isolated tissues were mounted in organ bath containing Krebs Henseleit buffer of the following composition (mM): NaCl 118; KCl 4.7; CaCl2 2.5; MgSO4·H2O 1.2; NaHCO3 25; KH2PO4 1.2; glucose 11.5. Buffer was maintained at 37° C. and aerated with a mixture of 95% O2 and 5% CO2. A resting tension of 2 g (aorta) or 1 g (spleen and prostate) was applied to tissues. Contractile response was monitored using a force displacement transducer and recorded on chart recorders. Tissues were allowed to equilibrate for 2 hours. At the end of equilibration period, concentration response curves to norepinephrine (aorta) and phenylephrine (spleen and prostate) were obtained in the absence and presence of the tested compound (at concentrations of 0.1, 1 and 10 μM). Antagonist affinity was calculated and expressed as PKB values in Table 1.

For a further data set, the target named is T2, α1D-adrenoceptor (aorta) (Rattus norvegicus, UniProt P23944).
T2 construct: Aorta, prostate and spleen tissues were isolated from urethane anaesthetized (1.5 gm/kg) male wistar rats; from tissue; host or cells: isolated aorta of male Wistar rats
T2 sequence (P23944 1-561): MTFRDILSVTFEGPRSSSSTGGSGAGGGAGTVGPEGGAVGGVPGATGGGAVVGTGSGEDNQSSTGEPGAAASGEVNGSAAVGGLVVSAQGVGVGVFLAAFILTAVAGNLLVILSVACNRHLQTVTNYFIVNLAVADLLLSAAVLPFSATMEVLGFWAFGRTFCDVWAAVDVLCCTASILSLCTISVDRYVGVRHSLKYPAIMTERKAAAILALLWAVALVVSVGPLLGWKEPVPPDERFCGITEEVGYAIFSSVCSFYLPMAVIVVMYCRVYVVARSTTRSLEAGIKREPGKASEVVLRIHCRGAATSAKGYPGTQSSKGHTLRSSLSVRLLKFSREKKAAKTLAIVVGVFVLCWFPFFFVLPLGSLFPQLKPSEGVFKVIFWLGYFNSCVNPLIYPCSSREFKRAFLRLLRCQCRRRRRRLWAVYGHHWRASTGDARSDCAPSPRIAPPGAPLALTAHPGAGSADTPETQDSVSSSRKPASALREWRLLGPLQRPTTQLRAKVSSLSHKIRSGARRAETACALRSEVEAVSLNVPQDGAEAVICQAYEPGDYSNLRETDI
In words: In vitro functional assay, norepinephrine-induced contraction of isolated aorta. In kind it is cell-based.
Excerpt: as §1

Another data set has as its target T3, α1B-adrenoceptor (Rattus norvegicus, UniProt P15823).
T3 construct: from tissue; host or cells: rat liver membranes
T3 sequence (P15823 1-515): T1 sequence (P15823 1-515)
In words: Receptor binding assay, [3H]prazosin, rat liver membranes. The settings on record: rat liver membranes, 0.5 nM [3H]prazosin; read-out: RBA (Ki nM) α1B. As for the experimental part: (§2) Receptor binding assays, (RBA's) were performed for native α1-adrenoceptors. Rat submaxillary and rat liver membrane preparations were used to assess the affinity for α1A and α1B subtypes, respectively. Aliquots of membrane protein ([…]) were incubated in a final volume of […] assay buffer (50 mM Tris, 0.5 mM EDTA at pH 7.4) with 0.5 nM [^3H] prazosin for 60 mins at 28 ° C. Reaction was stopped by rapid filtration on Millipore filters. Filters were dried and bound radioactivity counted. Non-specific binding was determined in the presence of 0.3 mM prazosin.

For data set [2], the target named is T4, α1A-adrenoceptor (prostate) (Rattus norvegicus, UniProt P43140).
T4 construct: Aorta, prostate and spleen tissues were isolated from urethane anaesthetized (1.5 gm/kg) male wistar rats; from tissue; host or cells: isolated prostate of male Wistar rats
T4 sequence (P43140 1-466): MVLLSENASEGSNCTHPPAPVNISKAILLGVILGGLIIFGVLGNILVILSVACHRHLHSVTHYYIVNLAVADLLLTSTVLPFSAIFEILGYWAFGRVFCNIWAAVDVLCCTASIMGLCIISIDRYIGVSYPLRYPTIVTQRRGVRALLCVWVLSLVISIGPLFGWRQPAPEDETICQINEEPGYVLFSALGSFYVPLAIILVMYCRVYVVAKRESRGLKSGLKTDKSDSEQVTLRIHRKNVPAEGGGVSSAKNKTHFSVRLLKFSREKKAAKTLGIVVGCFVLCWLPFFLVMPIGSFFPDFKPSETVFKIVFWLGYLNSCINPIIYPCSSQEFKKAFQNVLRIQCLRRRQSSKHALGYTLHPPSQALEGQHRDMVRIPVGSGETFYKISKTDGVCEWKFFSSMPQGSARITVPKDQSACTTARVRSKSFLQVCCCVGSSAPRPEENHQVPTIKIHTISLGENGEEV
Kind of data set: In vitro functional assay, phenylephrine-induced contraction of isolated prostate. Format: cell-based.
Excerpt: as §1

The target of another data set is T5, α1A-adrenoceptor (Rattus norvegicus, UniProt P43140).
T5 construct: from tissue; host or cells: rat submaxillary gland membranes
T5 sequence (P43140 1-466): T4 sequence (P43140 1-466)
Kind of data set: Receptor binding assay, [3H]prazosin, rat submaxillary membranes. The protocol: as §2

Where [3] appears, read: rat spleen, phenylephrine, read-out: In Vitro Functional Assay (pKB) α1B (converted).
[4] abbreviates: rat aorta, norepinephrine, read-out: In Vitro Functional Assay (pKB) α1D (converted).
[5] abbreviates: rat prostate, phenylephrine, read-out: In Vitro Functional Assay (pKB) α1A (converted).
Where [6] appears, read: rat submaxillary membranes, 0.5 nM [3H]prazosin, read-out: RBA (Ki nM) α1A.

Molecule `O=C1CCC(=O)N1CCCN1CCN(c2cccc(Cl)c2)CC1` (as salt: hydrochloride) [Compound 5, 1-[4-(3-Chlorophenyl)piperazin-1-yl]-3-(2,5-dioxopyrrolidin-1-yl)propane] had a melting point of 230 to 231 °C.

Take `O=C1CCC(=O)N1CCCN1CCN(c2ncccn2)CC1` [Compound 6, 1-[4-(2-Pyrimidyl)piperazin-1-yl]-3-(2,5-dioxopyrrolidin-1-yl)propane]: the Kb in data set [1] (setting [3]) is 5010 nM; at α1D-adrenoceptor (aorta) (setting [4]), 316 nM; in data set [2] (setting [5]), 20000 nM. The results for the inhibition constant Ki at α1B-adrenoceptor and at α1A-adrenoceptor (setting [6]) were greater than 2500 nM and 1140 nM, respectively.

Regarding `O=C1CCCC(=O)N1CCCN1CCN(c2ccccn2)CC1` (as salt: hydrochloride) [Compound 19, 1-[4-(2-Pyridyl)piperazin-1-yl)-3-(2,6-dioxopiperidin-1-yl)propane], the melting point was in the range of 244 to 245 °C.

As for `Cc1ccc(N2CCN(CCCN3C(=O)CCCC3=O)CC2)cc1C` [Compound 21, 1-[4-(3,4-Dimethylphenyl)piperazin-1-yl]-3-(2,6-dioxopiperidin-1yl)propane], the figures for the Kb (in data set [1] (setting [3]); at α1D-adrenoceptor (aorta) (setting [4]); in data set [2] (setting [5])) were 200 nM, 316 nM and 316 nM, respectively. The Ki turned out to be 176 nM on α1B-adrenoceptor and 2130 nM at α1A-adrenoceptor (setting [6]).

In turn, `COc1ccccc1N1CCN(CCN2C(=O)CCC2=O)CC1` (as salt: hydrochloride) [Compound 10, 1-[4-(2-Methoxyphenyl)piperazin-1-yl]-2-(2,5-dioxopyrrolidin-1-yl)ethane] gave a melting point of 232 to 234 °C.

As to `O=C1CCCC(=O)N1CCCN1CCN(c2ccc(Cl)cc2)CC1` [Compound 15, 1-[4-(4-Chlorophenyl)piperazin-1-yl]-3-(2,6-dioxopiperidin-1yl)propane], the results for the Kb (in data set [1] (setting [3]); at α1D-adrenoceptor (aorta) (setting [4]); in data set [2] (setting [5])) were 1000 nM, 631 nM and 200 nM, respectively. In addition, the inhibition constant Ki on α1B-adrenoceptor was 201 nM; at α1A-adrenoceptor (setting [6]), 520 nM.

The molecule `O=C1CCC(=O)N1CCCN1CCN(c2ccccn2)CC1` (as salt: hydrochloride) [Compound 4, 1-[4-(2-Pyridyl)piperazin-1-yl]-3-(2,5-dioxopyrrolidin-1-yl)propane] came in with a melting point of 261 to 262 °C.

`O=C1CCCC(=O)N1CCCN1CCN(c2cccc(Cl)c2)CC1` (as salt: hydrochloride) [Compound 20, 1-[4-(3-Chlorophenyl)piperazin-1-yl]-3-(2,6-dioxopiperidin-1-yl)propane]: the melting point was in the range of 214 to 215 °C.

On to `O=C1CCCC(=O)N1CCCN1CCN(c2ccccc2F)CC1` [Compound 17, 1-[4-(2-Fluorophenyl)piperazin-1-yl]-3-(2,6-dioxopiperidin-1-yl)propane], for which the Kb in data set [1] was 79.4 nM; on α1D-adrenoceptor (aorta), 12.6 nM; in data set [2], 10 nM. Further, the inhibition constant Ki at α1B-adrenoceptor was 396 nM; on α1A-adrenoceptor it was 21 nM.

For `O=C1CCC(=O)N1CCCN1CCN(c2ccc(F)cc2)CC1` [Compound 1, 1-[4-(4-Fluorophenyl)piperazin-1-yl]-3-(2,5-dioxopyrrolidin-1-yl)propane], the figures for the Kb (in data set [1]; on α1D-adrenoceptor (aorta) (setting [4]); in data set [2]) were 100 nM, 158 nM and 79.4 nM, respectively. For the same molecule, the Ki on α1B-adrenoceptor was 1000 nM; on α1A-adrenoceptor (setting [6]) it was greater than 2500 nM.

For the molecule `Cc1ccc(N2CCN(CCCN3C(=O)CCC3=O)CC2)cc1C` [Compound 7, 1-[4-(3,4-Dimethylphenyl)piperazin-1-yl]-3-(2,5-dioxopyrrolidin-1-yl)propane], the Kb in data set [1] (setting [3]) was 200 nM; at α1D-adrenoceptor (aorta) (setting [4]), 316 nM; in data set [2] (setting [5]) it was 398 nM. Further, the Ki at α1B-adrenoceptor was 282 nM; on α1A-adrenoceptor (setting [6]) it was 450 nM.

In turn, `O=C1CCC(=O)N1CCCN1CCN(c2cccc(C(F)(F)F)c2)CC1` (as salt: hydrochloride) [Compound 3, 1-[4-(3-Trifluoromethylphenyl)piperazin-1-yl]-3-(2,5-dioxopyrrolidin-1-yl)propane] displayed a melting point of 218 to 220 °C.

As to `O=C1CCCC(=O)N1CCCN1CCN(c2cccc(C(F)(F)F)c2)CC1` (as salt: hydrochloride) [Compound 16, 1-[4-(3-Trifluoromethylphenyl)piperazin-1-yl]-3-(2,6-dioxopiperidin-1-yl)propane], the melting point is 228 to 229 °C.
